{"source": "patent EP2050455B1", "about": "“Compounds leading to an increase of the IL-12/IL-10 ratio and their use for therapy of infectious and proliferative diseases” (priority 2007, dated 2009)", "key": {"MoDC [1]": {"tested_on": "MoDC", "conditions": "Nishiguchi et al. (2001); cited from earlier work"}, "IL-10 production of MoDC": {"tested_on": "IL-10 production of MoDC", "experiment": "IL-10 production by ELISPOT assay (indicator culture)", "format": "cell-based, Human", "experimental": "(§1) The number of living cells was measured by Casy-technology. […] They were analysed for expression of CD14 versus HLA-DR. Morphology was assessed by phase contrast microscopy. […] MoDC were cultured in serum containing media (A) or serum free (B). They were left untreated (black), treated with maturation cocktail as positive control (green), or with 10 nM OspA-LP (red) for 48 hours and analysed by flow cytometry for viability or the expression of CD14, CD1a, CD86/CD80 double positive cells, CD83 and CD197 (CCR7). Data were collected from 4 independent experiments. The results are means ±SD. […] After another 24 hours the cells were analysed for IL-10 production by ELISPOT assay. […] The resulting values are given numbers of spots. […] All LP treated MoDC (red) were compared with untreated MoDC (black). The blue line represents 100 spots per 5x10^4 MoDC. […] They were analysed for IL-10 (left) and IL-12p70 production (right). Shown are 3 independent experiments using cells from different healthy donors. Compared to the untreated controls (black), IL-10 production is not depressed by LPS R60/IFN-γ (red). […] (A) number of cytokine producing cells: IL-10 (black); IL-12p70 (red). (B) ratio of IL-12p70/IL-10 producing cells. […] The resulting cells were analysed for the surface expression of both CD80 and CD86 in dot plot analyses (A), and CD83 histogram overlay (B).\n(§2) This culture imitates the fate of DC after injecting them into an organism and is designed to test the actual production and release of IL-12 and IL-10 during this phase. This is tested by the well-known ELISPOT-assay. For this phase the previous inducers were either sustained or washed out. Also, further inducers were added. Number of spots as well as the intensity of spots could be read out. Therefore, this setup does more realistically reflect the actual functional state of DC at the time of injection and thereafter."}, "iMoDC": {"tested_on": "iMoDC", "experiment": "Phenotype modification: CD14 versus HLA-DR expression and phase contrast morphology", "format": "cell-based, Human", "conditions": "non-toxic concentrations, 20-48 hours (Example 3)", "protocol": "Human peripheral blood monocytes were prepared by various well-established techniques. • (1) Blood drawing was carried out in the presence of the anticoagulant EDTA, separation of the nucleated cells by combined density/velocity gradient centrifugation, followed by selective adherence in the culture for one hour. The non-attached cells were washed off and the remaining population of highly enriched monocytes was further cultured. • (2) Alternatively, blood cells were recovered by leukapheresis, followed by counterflow elutriation. The highly enriched monocyte fraction was either freeze protected or taken into culture. Cells were cultured in a humidified incubator (37°C, 5% CO2)."}, "[2]": {"tested_on": "IL-12p70 production of MoDC", "experiment": "IL-12p70 production by ELISPOT assay (indicator culture)", "format": "cell-based, Human", "experimental": "as §1, §2"}, "MoDC [3]": {"tested_on": "MoDC", "experiment": "Surface marker expression / maturation of MoDC by flow cytometry", "format": "cell-based, Human", "experimental": "as §1\nCytokines GM-CSF (800 IU/ml; Bayer Healthcare Pharmaceutical) plus GMP-certified IL-4 (500 IU/ml; CellGenix, Freiburg, Germany) were added to induce transdifferentiation from monocytes to immature monocyte-derived dendritic cells (iMoDC). After 5-7 days of culture iMoDC were analysed for the surface markers CD1a, CD209 und CD14 using the antibodies listed in the following table. Table\nMaturation signals were added, including signals to trigger polarisation. The cells were further cultured for another 2 days.\nAlternatively, the maturation phase was split into individual steps: • Step 1: TLR agonists lipopeptides • Step 2: presence of the previous inducers, TLR agonists lipopolysaccharide added in the presence of IFN-γ."}, "[4]": {"conditions": "non-toxic concentrations, 20-48 hours (Example 3)"}}, "data": [{"substance": "FSL-1", "values": [{"measurement": "Maturation of DC", "setting": "MoDC [1]", "value": "incompletely"}, {"measurement": "IL-10-secretion of immature DC", "setting": "IL-10 production of MoDC; ELISPOT", "value": "down-regulation"}, {"measurement": "IL-10 production", "setting": "IL-10 production of MoDC; OspA-LP 10 nM, FSL-1 1 nM, FSL-2 1 nM, alone or combined with IFN-γ (500 IU/ml), 24 hours, vs untreated (Figure 6)", "value": "downregulated"}, {"measurement": "IL-10 secreting cells", "setting": "IL-10 production of MoDC; non-toxic concentrations, 20-48 hours, dose-dependent, donor-independent (Example 3)", "value": "decrease"}, {"measurement": "cell phenotype", "setting": "iMoDC", "value": "modification"}, {"measurement": "IL-12p70 production", "setting": "[2]; OspA-LP 10 nM, FSL-1 1 nM, FSL-2 1 nM, alone or combined with IFN-γ (500 IU/ml), 24 hours (Figure 6)", "value": "remains extremely low"}, {"measurement": "production of IL-12", "setting": "[2]; immature DC", "value": "No effect"}, {"measurement": "IL-12p70 production", "setting": "[2]; [4]", "value": "only poorly stimulated"}, {"measurement": "Maturation of MoDC (surface expression of CD80, CD86, CD83)", "setting": "MoDC [3]; FSL-1 LP 1 nM, LPS R60 1 µg/ml / IFN-γ 500 IU/ml, single or sequential (Figure 10)", "value": "only incomplete maturation"}, {"measurement": "Costimulatory signals (CD80, CD86)", "setting": "MoDC [3]; [4]", "value": "upregulated"}, {"measurement": "maturation as measured by expression of CD83", "setting": "MoDC [3]; [4]", "value": "No complete maturation"}]}]}
